Assay: Reaction with N-acetylcysteamine (model for skin-bound sulfhydryl groups) in the presence of base, followed by 1H NMR
Details: for time after which the reaction was complete by NMR: 1 equivalent N-acetylcysteamine per crotonyl moiety, CDCl3
Description: As a model for skin-bound sulfhydryl groups (—SH) of cysteine residues in skin proteins, the compound N-acetylcysteamine was allowed to react with OSM in the presence of a catalytic amount of the base 1,5-diazabicyclo[4.3.0]non-5-ene (DBN) in chloroform solution.
As a model for skin-bound sulfhydryl groups (—SH) of cysteine residues in skin proteins, the compound N-acetylcysteamine was allowed to react with OCM in the presence of a catalytic amount of the base 1,5-diazabicyclo[4.3.0]non-5-ene (DBN) in chloroform solution.
As a model for skin bound sulfhydryl groups (—SH) of cysteine residues in skin proteins, the compound N-acetylcysteamine was allowed to react with DCPEG in the presence of a catalytic amount of the base 1,5-diazabicyclo[4.3.0]non-5-ene (DBN) in chloroform solution.
A solution of octadecyl S-sorbyl-3 -mercaptopropionate (10.9 mg, 0.024 mmol) in 0.3 mL of CDCl3 was added to a solution of N-acetylcysteamine (5.2 μL, 0.048 mmol) and DBN (3.1 μL, 0.025 mmol) in 0.3 mL of CDCl3. The mixture was immediately transferred to an NMR tube and the first spectrum was recorded at time=0. The reaction solution was allowed to stand at room temperature in the NMR tube for two days, and the course of the reaction was monitored by periodically recording the ^1H NMR spectrum. A total often ^1H NMR experiments were performed at time=0, 0.25, 0.5, 1, 1.5, 4.5, 12, 20.5, 26, and 39 hours.
The time course of the reaction of OSM with 2 equiv of N-acetylcysteamine in the presence of 1 equiv of DBN in 0.6 mL of CDCl3 was studied by recording ^1H NMR spectra at various times for 39 hours. The signals of the olefinic protons due to the sorbate group of OSM (δ 6.2-6.0 and δ 7.2) and that of the newly formed C═C bond of the monoadducts (δ 5.6-5.2) were monitored in particular. In the course of these experiments, it was observed that the signals at δ 6.2-6.0 and δ 7.2 disappeared, while those at δ 5.6-5.2 appeared over the first 1.5 hours of the reaction, which indicated the formation of the monoadducts. The olefinic protons signals of the monoadducts started to fade away gradually after 1.5 hours and became very weak by approximately 39 hours. These spectra may imply the formation of the diadduct.
The reaction of OCM with N-acetylcysteamine was carried out at room temperature as follows: 22.0 mg of OCM was dissolved in 0.6 mL of CDCl3 and 5.7 μL of N-acetylcysteamine (1 equivalent) was added. […] Then a catalytic amount (0.1 equiv) of the base DBN was added, and the NMR spectrum was recorded immediately and again after 5 minutes. By 5 minutes, more than 60% of the OCM had reacted as judged by the diminished integration of the resonances at 6.9 ppm and 6.1 ppm due to the vinyl protons of the crotonyl moiety of OCM. […] A COSY spectrum confirmed that the expected product, shown earlier herein, had been formed. Nucleophilic attack by the sulfur atom of N-acetylcysteamine, presumably as the thiolate anion, at the β-position of the unsaturated thiol ester generated the expected covalent adduct. […]
The reaction of DCPEG with N-acetylcysteamine was followed by NMR: 35.6 mg of DCPEG was dissolved in 0.7 mL CDCl3 and the spectrum was recorded before and after addition of N-acetylcysteamine (1 equivalent per crotonyl moiety). […]

[1] = 2 equiv N-acetylcysteamine, 1 equiv DBN, CDCl3, room temperature

With `C/C=C/C(=O)SCCC(=O)OCCCCCCCCCCCCCCCCCC` [OCM, octadecyl S-crotonyl-3-mercaptopropionate] the “time after which the reaction was complete by NMR” value (0.1 equiv DBN) was 27 min and the “OCM reacted, judged by diminished integration of the vinyl proton resonances” value (1 equivalent N-acetylcysteamine, 0.1 equiv DBN, CDCl3, room temperature, by 5 minutes) was “more than 60%”.
With `C/C=C/C=C/C(=O)SCCC(=O)OCCCCCCCCCCCCCCCCCC` [OSM, octadecyl S-sorbyl-3-mercaptopropionate] the “time by which the monoadduct olefinic proton signals became very weak (may imply diadduct formation)” value [1] was “approximately 39 hours” and the “time over which sorbate olefinic signals disappeared and monoadduct signals appeared” value [1] was ≤ 1.5 h.
In the case of “S,S′-dicrotonyl-α-thio-ω-mercapto[poly(ethylene glycol)] [DCPEG]”, the “time after which the reaction was complete by NMR” value (0.1 equiv DBN) is reported as 5 min.
